Key:
[1] = target: T1, RXR-associated protein kinase in Flag-RXR immunocomplexes (Homo sapiens, UniProt P19793); test: In vitro kinase reaction with [γ-32P]ATP on Flag-RXR immunocomplexes from transfected HEK 293 cells; format: cell-based; details: transfected HEK 293 cells treated with ligand before anti-Flag immunoprecipitation
T1 construct: expressed in transfected cells; host or cells: HEK 293
T1 sequence (P19793 1-462): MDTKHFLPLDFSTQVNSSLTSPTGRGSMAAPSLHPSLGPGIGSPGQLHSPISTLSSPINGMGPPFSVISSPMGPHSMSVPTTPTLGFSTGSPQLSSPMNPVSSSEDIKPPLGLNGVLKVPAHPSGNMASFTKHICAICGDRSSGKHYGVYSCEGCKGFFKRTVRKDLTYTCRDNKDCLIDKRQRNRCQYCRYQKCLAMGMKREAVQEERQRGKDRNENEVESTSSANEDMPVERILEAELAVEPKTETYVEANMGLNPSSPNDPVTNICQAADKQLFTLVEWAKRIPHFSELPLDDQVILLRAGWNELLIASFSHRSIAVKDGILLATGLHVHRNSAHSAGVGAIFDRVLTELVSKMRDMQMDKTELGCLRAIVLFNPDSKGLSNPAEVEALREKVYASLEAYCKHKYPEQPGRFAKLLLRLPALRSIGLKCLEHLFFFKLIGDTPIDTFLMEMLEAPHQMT
Source text: (§1) Total cell lysates were immunoprecipitated with anti-Flag antibody (M2). Aliquots of the immunocomplexes were used for the in vitro kinase reaction with [γ-^32P]ATP and separated on SDS-PAGE. Phosphorylated proteins were detected by autoradiography (top panel). Additional aliquots of the immunocomplexes were subjected to immunoblotting with polyclonal anti-RXR antisera (D20; bottom panel). (B) Phosphoamino acid analysis. Flag-RXR and the 160-kDa protein were phosphorylated in vitro and separated on SDS-PAGE as described above, then transferred onto PVDF membrane, detected by autoradiography, and cut out for hydrolysis with acid (6 N HCl). The phosphorylated amino acids and standards (P-Ser, P-Thr, and P-Tyr) were separated by thin-layer chromatography. Positions of the standards P-Ser, P-Thr, and P-Tyr were visualized by ninhydrin staining and are indicated by arrows. (C) In vivo metabolic labeling of transfected HEK 293 cells. […] Cells were washed with phosphate-free medium and starved for 90 minutes before incubation with [^32P]orthophosphate for another 4 hours. […] Total cell lysates were immunoprecipitated with anti-Flag antibody (M2) and subjected to separation on SDS-PAGE. Phosphorylated proteins were detected by autoradiography.
(§2) Total cell lysates were subjected to immunoprecipitation, and the in vitro kinase reaction performed as described above.
(§3) Cell lysis, immunoprecipitation with anti-Flag (M2), in vitro kinase assay, and detection of the phosphorylated proteins in the RXRα immunoprecipitated complexes were performed as described above.
(§4) Cell culture and transient transfection was performed as follows. HEK 293 cells were grown in Dulbecco's modified Eagle's medium (DMEM) supplemented with 10% fetal bovine serum (FBS), 100U of penicillin per ml and 10 μg of streptomycion per ml at 37° C. in 5% CO2. For expression of RXR protein, 100-mm dishes of cells were transfected at 50% confluence with 2 μg of plasmid DNA using Lipofectamine (Life Technologies) as specified by the manufacturer. At 32 hours post-transfection, cells were starved by incubating in DMEM medium with 2.5% charcoal-treated fetal bovine serum or 0.1-0.5% calf bovine serum overnight, and then treated with indicated agents. Cells were harvested by aspirating medium, rinsing in phosphate buffered saline (PBS), and extracting into Lysis Buffer (30 mM Tris-HCL, pH 7.4, 0.5% Nonidet P-40, 10% glycerol, 150 mM NaCl, 1 mM EDTA, 40 mM NaF, 1 mM sodium orthovanadate, and 0.5 mM phenylmethylsufonyl fluoride, and 1× protease inhibitors, (Roche Diagnostics) or 1×SDS Sample Buffer.
(§5) Immunoprecipitation was performed essentially as follows. Cells were solubilized in cold Lysis Buffer and subsequently clarified by centrifugation at 20,000 g for 10 minutes at 4° C. Immunoprecipitations were performed at 4° C. by incubating clarified cell extracts with the indicated antibodies (2 μg/ml) and protein A/G-agarose beads (1:30 dilution of a 50% suspension) on a rotating wheel for 4 hours to overnight. Agarose beads were pelleted by low speed centrifugation and washed extensively with ice-cold Lysis Buffer.
(§6) Protein kinase assays were performed as follows. Immunoprecipitated complexes were resuspended in 15 μl of Kinase Assay Buffer (30 mM Tris-HCl, pH 7.4 and 10 mM MgCl2). Kinase reactions were initiated by addition of 2.5 μl of 50 μM [γ-^32P]ATP (10 μCi) to the immune-complexes, followed by incubation at 25° C. with occasional shaking for 20 minutes, and terminated by addition of 6 μl 4×SDS Sample Buffer. After heating at 100° C. for 5 minutes, the reaction mixtures were resolved by 4-12% SDS-PAGE. Incorporation of ^32P into RXR or other proteins was determined by autoradiography.

[2] = system: RXR-associated protein kinase in Flag-RXR immunocomplexes; test: as above; format: cell-based, human
Source text: as §1, §2, §3, §4, §5, §6

[3] = target: T2, protein kinase A activity associated with RXRα (Homo sapiens, UniProt P19793); test: Protein kinase A activity in anti-Flag immunoprecipitates of PH-RXRα or RXRα transfected HEK 293 cells, synthetic peptide substrate; format: cell-based; details: Flag-RXRα lacking pleckstrin homology domain, 10^-7 M, substrate LRRASLG, vs control vehicle
T2 sequence (P19793 1-462): T1 sequence (P19793 1-462)
Description: 293 cells were transfected with PH-RXRα. Sample 1: 0.1% DMSO (10 minutes). […] Sample 3: 0.1% DMSO (30 minutes).
Sample 1: 0.1% DMSO (10 minutes). […] Sample 3: 0.1% DMSO (30 minutes). […] Sample 5: No immunoprecipitate.
Sample 1: 0.1% DMSO. […] Sample 3: 0.1% DMSO with PKA inhibitor. […] Sample 5: 0.1% DMSO.
Following immunoprecipitation with anti-Flag antibody, the synthetic PKA substrate, LRRASLG (SEQ ID NO: 59), was added to the immunoprecipitate along with γ-ATP.
HEK 293 were cultured and transfected essentially as described above. Immunoprecipitates were prepared using the anti-Flag antibody, M2, as described above. Assays for protein kinase A activity were performed as follows. Immunoprecipitated complexes were resuspended in 40 μl of Kinase Assay Buffer (30 mM Tris-HCl, pH 7.4 and 10 mM MgCl2). Kinase reactions were initiated by addition of 10 μl of 500 μM synthetic peptide LRRASLG (SEQ ID NO: 59) or […] (SEQ ID NO: 60) prepared by Upstate Biotechnology (Lake Placid, N.Y.) and addition of 50 μM [γ-^32P]ATP (10 μCi) to the immune-complexes. […]
Incorporated ^32P was separated from free label by applying the reaction mixture onto P81 phosphocellulose paper and subsequently washing the paper three times with 0.75% phosphoric acid and once with acetone. Protein kinase reaction samples were analyzed in a scintillation counter to determine the amount of ^32P-incorporation.

## CC(/C=C/[C@@H]1C[C@]1(C)c1ccc2c(c1)C(C)(C)CCC2(C)C)=C\C(=O)O [AGN194204]
[1]
  phosphorylation of RXR and 160 kDa protein in Flag-RXR immunocomplexes: contained a kinase phosphorylated RXR and a 160 kDa protein
[2]; AF-2 region deleted from RXRα
  recruitment of kinase activity to the immunocomplex: kinase activity was not recruited
[2]; RXRα deletion mutants containing an intact E region
  recruitment of kinase activity to the immunocomplex: recruited kinase activity
[3]
  protein kinase A activity associated with RXRα: significantly enhanced
